According to patent US6389740B1, “Lethal mosquito breeding container” (The United States of America as represented by the …, priority 1997, dated 2002):
Like-named read-outs stand apart in the source and are kept apart here.

Tests used:
[1] = rat, 90 day period; cited from earlier work
mosquitoes = test: Caged mortality test of egg laying structures returned after one month in the field; settings: paper paddles returned to the lab after one month in the field
Experimental: A field test of a lethal breeding container according to Example 2, containing 0.87 deltramethrin on the egg laying structure, was conducted at three military housing sites in the Rio de Janeiro area of Brazil. At each housing site, six houses were selected to receive the lethal breeding containers. About 500 meters away, six houses were selected to serve as control units.
After one month in the field, the egg laying structures from the lethal container breeding containers were dried and shipped to the U.S. for testing. Four egg laying structures from outside lethal mosquito breeding containers and four egg laying structures from inside lethal mosquito breeding containers were reused in lethal. mosquito breeding containers and the mortality rate was determined.
A 1 cubic foot mosquito cage was used. The mosquitoes are given a blood meal at day 4 to 6 after post-emergence. […]
The mortality rate is determined by counting the number of deceased mosquitoes and live mosquitoes, adding these numbers together to arrive at the total number of mosquitoes exposed, and then dividing number of deceased mosquitoes by the total number of mosquitoes and multiplying that quotient by 100%. […]

[2] = 2 year beagle; cited from earlier work

CC1(C)[C@H](C(=O)O[C@H](C#N)c2cccc(Oc3ccccc3)c2)[C@@H]1C=C(Br)Br [deltamethrin]
NOEL [1]: 1 mg/kg/day
average mortality in caged tests (mosquitoes): 80%
NOEL [2]: 1 mg/kg/day
